The structures appear in SMILES notation.

Assay type in all cases: cell-based
Experiment [1] deals with T1, CDK4-NanoLuc fusion with CCND1 in 293T or 293 cells (Homo sapiens, UniProt P11802).
T1 construct: host or cells: 293T (ATCC CRL-3216) or 293 (ATCC CRL-1573)
Briefly: NanoBRET Target Engagement (TE) Intracellular Kinase Assay, CDK4/CCND1. The settings on record: NanoBRET TE intracellular kinase assay, 2-hour incubation, read-out: NanoBRET-CDK4/D1 IC50. On the procedure: (§1) Inhibitory effects of compounds were measured in NanoBRET TE Intracellular Kinase Assay. […] Cells were co-transfected with 1 μg/mL of CDK-NanoLuc Fusion Vector (Promega; NV2701 for CDK1, NV2781 for CDK2, NV2811 for CDK4, NV2841 for CDK6) and 1 μg/mL of the corresponding Cyclin Expression Vector (Promega; NV2601 for CCNB1, NV2641 for CCNE1, NV2621 for CCND1, NV2631 for CCND3) using FuGENE HD Transfection Reagent (Promega; E2311). […] 20 uL/well of 3× Intracellular TE Nano-Glo Substrate/Inhibitor (Promega; N2162) were added to 384-well plates and incubated for 3 minutes at room temperature. NanoBRET signals (donor emission wavelength at 450 nm, acceptor emission wavelength at 610 nm) were measured using Envision plate reader (PerkinElmer). NanoBRET ratio was calculated by: BRET Ratio=raw signal for acceptor/raw signal for donor. Dose response curve normalized to DMSO control was plotted using four-parameter logistic model for IC50 calculation.
(BRET reads energy transfer from a luciferase to a nearby fluorophore.)

The subject of experiment [2] is Phospho-Rb Ser807/811 in OVCAR3 cells. Nature of the experiment: OVCAR3 Phospho-Rb Ser807/811 HTRF assay. The settings on record: Homo sapiens, OVCAR-3, 1 h, OVCAR3 cells, Phospho-Rb Ser807/811 HTRF, 1 hour incubation; read-out: pRb-OVCAR3 IC50. On the procedure:
Cells were trypsinized and resuspended in 1 mM hydroxyurea (Sigma; H8627), 90% RPMI and 10% fetal bovine serum. […] Dose response curve normalized to DMSO control was plotted using four-parameter logistic model for IC50 calculation.

The target of experiment [3] is T2, CDK2-NanoLuc fusion with CCNE1 in 293T or 293 cells (Homo sapiens, UniProt P24941).
T2 construct: host or cells: 293T (ATCC CRL-3216) or 293 (ATCC CRL-1573)
Briefly: NanoBRET Target Engagement (TE) Intracellular Kinase Assay, CDK2/CCNE1. The settings on record: NanoBRET TE intracellular kinase assay, 2-hour incubation, read-out: NanoBRET-CDK2/E1 IC50. On the procedure: as §1

T1 sequence (P11802 whole entry, the tested form may be a part): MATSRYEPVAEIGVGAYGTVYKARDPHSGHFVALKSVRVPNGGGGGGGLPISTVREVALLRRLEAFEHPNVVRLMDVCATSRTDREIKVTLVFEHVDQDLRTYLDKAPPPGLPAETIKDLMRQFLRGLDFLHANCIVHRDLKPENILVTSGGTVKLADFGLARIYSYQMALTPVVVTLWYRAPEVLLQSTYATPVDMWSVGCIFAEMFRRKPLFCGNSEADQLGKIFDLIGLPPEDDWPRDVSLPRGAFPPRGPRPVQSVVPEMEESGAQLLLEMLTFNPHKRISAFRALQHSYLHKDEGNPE
T1 sequence (P24385 whole entry partner, the tested form may be a part): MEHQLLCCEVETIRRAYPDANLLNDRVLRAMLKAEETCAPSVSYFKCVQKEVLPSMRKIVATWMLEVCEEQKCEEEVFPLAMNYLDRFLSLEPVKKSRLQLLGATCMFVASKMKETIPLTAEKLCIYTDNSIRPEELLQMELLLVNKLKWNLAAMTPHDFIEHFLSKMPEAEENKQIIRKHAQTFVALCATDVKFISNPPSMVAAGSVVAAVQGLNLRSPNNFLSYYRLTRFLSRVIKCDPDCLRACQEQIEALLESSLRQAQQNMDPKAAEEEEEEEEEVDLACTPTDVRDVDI

Take `COc1cc(O)c(C=O)c(OCC(=O)Nc2cc([C@H]3CC[C@@H](OC(=O)N4[C@@H]5CC[C@H]4C[C@H](C#N)C5)C3)[nH]n2)c1` [Compound 154]: the IC50 in experiment [1] is 2.1 µM; in experiment [2] it was 0.0278 µM; in experiment [3], 0.00773 µM.
On to `COc1cc(O)c(C=O)c(OCC(=O)Nc2cc([C@H]3CC[C@@H](OC(=O)N(C)CCC#N)C3)[nH]n2)c1` [Compound 155], for which the values for the IC50 in experiment [1], in experiment [2] and in experiment [3] were 6.3 µM, 0.0235 µM and 0.00765 µM, respectively.
In the case of `COc1cc(O)c(C=O)c(OCC(=O)Nc2cc([C@H]3CC[C@@H](OC(=O)NCCCC#N)C3)[nH]n2)c1` [Compound 156], the values for the IC50 in experiment [1], in experiment [2] and in experiment [3] were above 10 µM, 0.0338 µM and 0.0101 µM, respectively.
Take `COc1cc(O)c(C=O)c(OCC(=O)Nc2cc([C@H]3CC[C@@H](OC(=O)N4C[C@@H]5CC[C@H]4CO5)C3)[nH]n2)c1` [Compound 157]: the results for the IC50 in experiment [1], in experiment [2] and in experiment [3] were 7 µM, 0.07 µM and 0.00679 µM, respectively.
As to `COc1cc(O)c(C=O)c(OCC(=O)Nc2cc([C@H]3CC[C@@H](OC(=O)N4C[C@H]5CC[C@@H]4CO5)C3)[nH]n2)c1` [Compound 158], the IC50 was 3.9 µM in experiment [1], 0.0244 µM in experiment [2] and 0.00558 µM in experiment [3].
For `COc1cc(O)c(C=O)c(OCC(=O)Nc2cc([C@H]3CC[C@@H](OC(=O)NC(C)(C)C#N)C3)[nH]n2)c1` [Compound 159], in that order: 4.84 µM, 0.0431 µM and 0.0106 µM.
For the compound `COc1cc(O)c(C=O)c(OCC(=O)Nc2cc([C@H]3CC[C@@H](OC(=O)NN(C)C)C3)[nH]n2)c1` [Compound 160], the IC50 in experiment [1] was above 10 µM; in experiment [2], 0.0803 µM; in experiment [3], 0.00735 µM.
For `Cc1cc(O)c(C=O)c(OCC(=O)Nc2cc([C@H]3CC[C@@H](OC(=O)N4C5CCC4CC5)C3)[nH]n2)c1` [Compound 161], the IC50 was 7.36 µM in experiment [1], 0.0686 µM in experiment [2] and 0.00279 µM in experiment [3].
For `Cc1cc(O)c(C=O)c(OCC(=O)Nc2cc([C@H]3CC[C@@H](OC(=O)N4CCC4(C)C)C3)[nH]n2)c1` [Compound 162] the same measures were 3.47 µM, 0.0374 µM and 0.00309 µM.
On to `COc1cc(O)c(C=O)c(OCC(=O)Nc2cc([C@H]3CC[C@@H](OC(=O)N[C@@H](C)CC#N)C3)[nH]n2)c1` [Compound 163], for which the IC50 in experiment [1] was 6.3 µM; in experiment [2], 0.0277 µM; in experiment [3], 0.0102 µM.
As to `COc1cc(O)c(C=O)c(OCC(=O)Nc2cc([C@H]3CC[C@@H](OC(=O)Nc4ccccc4)C3)[nH]n2)c1` [Compound 164], the IC50 in experiment [1] came out at 5.88 µM; in experiment [2] it was 0.301 µM; in experiment [3], 0.0096 µM.
In the case of `COc1cc(O)c(C=O)c(OCC(=O)Nc2cc([C@H]3CC[C@@H](OC(=O)Nc4ccncc4)C3)[nH]n2)c1` [Compound 165], the IC50 stood at 7.92 µM in experiment [1], 0.383 µM in experiment [2] and 0.0128 µM in experiment [3].
For the compound `COc1cc(O)c(C=O)c(OCC(=O)Nc2cc([C@H]3CC[C@@H](OC(=O)NCc4ccccn4)C3)[nH]n2)c1` [Compound 166], the IC50 is above 10 µM in experiment [1], 0.167 µM in experiment [2] and 0.0103 µM in experiment [3].
As to `COc1cc(O)c(C=O)c(OCC(=O)Nc2cc([C@H]3CC[C@@H](OC(=O)N[C@@H](C)CC(F)(F)F)C3)[nH]n2)c1` [Compound 167], the IC50 in experiment [1] was found to be 0.828 µM; in experiment [2], 0.0243 µM; in experiment [3], 0.0028 µM.
For `CCC[C@H](C)NC(=O)O[C@@H]1CC[C@H](c2cc(NC(=O)COc3cc(OC)cc(O)c3C=O)n[nH]2)C1` [Compound 168], in that order: 3.27 µM, 0.0292 µM and 0.00245 µM.
`CCN(C(=O)O[C@@H]1CC[C@H](c2cc(NC(=O)COc3cc(OC)cc(O)c3C=O)n[nH]2)C1)C(C)C` [Compound 169]: the IC50 in experiment [1] was 0.773 µM; in experiment [2], 0.0229 µM; in experiment [3], 0.00227 µM.
`COc1cc(O)c(C=O)c(OCC(=O)Nc2cc([C@H]3CC[C@@H](OC(=O)NCc4ccccc4)C3)[nH]n2)c1` [Compound 170]: the IC50 came to 6.04 µM in experiment [1], 0.0706 µM in experiment [2] and 0.00306 µM in experiment [3].
For `COc1cc(O)c(C=O)c(OCC(=O)Nc2cc([C@H]3CC[C@@H](OC(=O)N(OC)C(C)C)C3)[nH]n2)c1` [Compound 171], the IC50 in experiment [1] was above 10 µM; in experiment [2], 0.107 µM; in experiment [3], 0.00324 µM.
As for `COc1cc(O)c(C=O)c(OCC(=O)Nc2cc([C@H]3CC[C@@H](OC(=O)N(O)C(C)C)C3)[nH]n2)c1` [Compound 173], the results for the IC50 in experiment [1], in experiment [2] and in experiment [3] were 5.34 µM, 0.0342 µM and 0.00399 µM, respectively.
In the case of `COc1cc(O)c(C=O)c2c1C[C@@H](C(=O)Nc1cc([C@H]3CC[C@@H](OC(=O)NC(C)C)C3)[nH]n1)C2` [Compound 174, (1R,3S)-3-(3-((S)-4-formyl-5-hydroxy-7-methoxy-2,3-dihydro-1H-indene-2-carboxamido)-1H-pyrazol-5-yl)cyclopentyl isopropylcarbamate], the results for the IC50 in experiment [1], in experiment [2] and in experiment [3] were 0.668 µM, 0.0107 µM and 0.00326 µM, respectively.
As to `COc1cc(O)c(C=O)c(OCC(=O)Nc2cc([C@H]3CC[C@@H](OC(=O)NCCC(F)(F)F)C3)[nH]n2)c1` [Compound 175], the IC50 in experiment [1] was found to be 8.44 µM; in experiment [2], 0.0169 µM; in experiment [3] it was 0.00211 µM.
For `COCC(C)(C)NC(=O)O[C@@H]1CC[C@H](c2cc(NC(=O)COc3cc(OC)cc(O)c3C=O)n[nH]2)C1` [Compound 176], in that order: 3.36 µM, 0.0574 µM and 0.0042 µM.
For `COCC[C@H](C)NC(=O)O[C@@H]1CC[C@H](c2cc(NC(=O)COc3cc(OC)cc(O)c3C=O)n[nH]2)C1` [Compound 177], in that order: above 10 µM, 0.0293 µM and 0.00317 µM.
As for `COc1cc(O)c(C=O)c(OCC(=O)Nc2cc([C@H]3CC[C@@H](OC(=O)NCC4CCC4)C3)[nH]n2)c1` [Compound 178], the IC50 is 5.6 µM in experiment [1], 0.0541 µM in experiment [2] and 0.00208 µM in experiment [3].
As to `COc1cc(O)c(C=O)c(OCC(=O)Nc2cc([C@H]3CC[C@@H](OC(=O)NCC4COC4)C3)[nH]n2)c1` [Compound 179], the IC50 is above 10 µM in experiment [1], 0.115 µM in experiment [2] and 0.0141 µM in experiment [3].
For `CCN(CC)C(=O)O[C@@H]1CC[C@H](c2cc(NC(=O)COc3cc(OC)cc(O)c3C=O)n[nH]2)C1` [Compound 180] the same measures were 1.58 µM, 0.0235 µM and 0.00268 µM.
For `CCCCNC(=O)O[C@@H]1CC[C@H](c2cc(NC(=O)COc3cc(OC)cc(O)c3C=O)n[nH]2)C1` [Compound 181], in that order: 5 µM, 0.0279 µM and 0.00118 µM.
In the case of `CCCNC(=O)O[C@H]1C[C@@H](c2cc(NC(=O)COc3cc(OC)cc(O)c3C=O)n[nH]2)C1` [Compound 182, (1s,3s)-3-(3-(2-(2-formyl-3-hydroxy-5-methoxyphenoxy)acetamido)-1H-pyrazol-5-yl)cyclobutyl propylcarbamate], the IC50 is above 10 µM in experiment [1], 0.0661 µM in experiment [2] and 0.00624 µM in experiment [3].
For `O=Cc1c(O)cc(Cl)cc1OCC(=O)Nc1cc([C@H]2CC[C@@H](OC(=O)N3C4COCC3C4)C2)[nH]n1` [Compound 183] the same measures were 4.2 µM, 0.14 µM and 0.0101 µM.
As for `CC[C@H](C)NC(=O)O[C@@H]1CC[C@H](c2cc(NC(=O)COc3cc(OC)cc(O)c3C=O)n[nH]2)C1` [Compound 184], the results for the IC50 in experiment [1], in experiment [2] and in experiment [3] were 1.45 µM, 0.0206 µM and 0.0015 µM, respectively.
Take `COc1cc(O)c(C=O)c(OCC(=O)Nc2cc([C@H]3CC[C@@H](OC(=O)NC4CN(C)C4)C3)[nH]n2)c1` [Compound 185]: the IC50 is above 10 µM in experiment [1], 0.363 µM in experiment [2] and 0.445 µM in experiment [3].
`O=Cc1c(O)cc(OC(F)F)cc1OCC(=O)Nc1cc([C@H]2CC[C@@H](OC(=O)N3C4COCC3C4)C2)[nH]n1` [Compound 186]: the values for the IC50 in experiment [1], in experiment [2] and in experiment [3] were 6.58 µM, 0.105 µM and 0.022 µM, respectively.
For `COc1cc(O)c(C=O)c(OCC(=O)Nc2cc([C@H]3CC[C@@H](OC(=O)N4CC(N(C)C)C4)C3)[nH]n2)c1` [Compound 187] the same measures were above 10 µM, 0.0653 µM and 0.0184 µM.
